Experimental data: patent publication US12366579B2, “Sulfur-heterocycle exchange chemistry and uses thereof” (University of Virginia Patent Foundation, priority 2019, dated 2025)

Experiments:
human DPP3 (hDPP3) = target: T1, human DPP3 (hDPP3) (Homo sapiens, UniProt Q9NY33); test: Gel-based competitive chemical proteomic screen with HHS-482, recombinant hDPP3-HEK293T soluble proteomes; format: binding; details: 50 μM fragment, 37° C., 30 min; also substantial proteome cross-reactivity
T1 construct: FLAG (C); host or cells: HEK293T, transient transfection; soluble proteome used unpurified
T1 sequence (Q9NY33 1-737): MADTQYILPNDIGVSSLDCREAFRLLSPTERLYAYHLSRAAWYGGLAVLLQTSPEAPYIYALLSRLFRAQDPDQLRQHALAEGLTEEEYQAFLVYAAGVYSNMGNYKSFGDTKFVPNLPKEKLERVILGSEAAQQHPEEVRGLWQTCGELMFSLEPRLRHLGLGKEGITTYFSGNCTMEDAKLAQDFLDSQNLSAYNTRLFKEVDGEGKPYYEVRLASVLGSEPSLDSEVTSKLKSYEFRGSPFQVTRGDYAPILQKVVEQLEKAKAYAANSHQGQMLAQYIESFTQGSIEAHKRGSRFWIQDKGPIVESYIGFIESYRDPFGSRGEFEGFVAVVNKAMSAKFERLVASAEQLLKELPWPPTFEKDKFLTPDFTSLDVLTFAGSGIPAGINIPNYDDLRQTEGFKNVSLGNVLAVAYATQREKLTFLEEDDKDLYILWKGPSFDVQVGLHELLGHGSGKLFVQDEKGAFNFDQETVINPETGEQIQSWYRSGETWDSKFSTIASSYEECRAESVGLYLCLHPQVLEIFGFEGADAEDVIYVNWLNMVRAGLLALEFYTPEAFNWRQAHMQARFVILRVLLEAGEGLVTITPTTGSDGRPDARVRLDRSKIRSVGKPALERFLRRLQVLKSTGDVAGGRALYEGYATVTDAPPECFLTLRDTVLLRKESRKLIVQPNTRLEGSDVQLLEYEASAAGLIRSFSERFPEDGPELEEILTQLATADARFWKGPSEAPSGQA
Method: (§1) Gel-Based Chemical Proteomic Assay
(§2) Cell pellets were lysed in PBS and fractionated (100,000×g, 45 min, 4° C.) to generate soluble and membrane fractions. Protein concentrations were determined using Bio-Rad DC protein assay (Bio-Rad Laboratories, Inc., Hercules, California, United States of America), and adjusted to 1 mgml^−1 in PBS. Proteome samples (49 μl aliquots) were treated with DMSO vehicle or indicated concentration of SuTEx fragment (1 μL, 50× stock in DMSO) for 30 min at 37° C. Samples were then treated with HHS-482 probe (1 μL, 2.5 mM stock in DMSO) for 30 min at 37° C. Probe labeled samples were conjugated to rhodamine-azide (1 μL, 1.25 mM stock; final concentration of 25 μM) by copper-catalyzed azide-alkyne cycloadditions (CuAAC) for 1 h at room temperature followed by SDS-PAGE and in-gel fluorescence scanning as previously described^57.

human GSTP1 (hGSTP1) = target: T2, human GSTP1 (hGSTP1) (Homo sapiens, UniProt P09211); test: Gel-based competitive chemical proteomic screen with HHS-482, recombinant hGSTP1-HEK293T soluble proteomes; format: binding; details: fragment 50 μM, 30 min, 37° C.
T2 construct: FLAG (C); host or cells: HEK293T, transient transfection; soluble proteome used unpurified
Method: as §1, §2

[1] = target: T3, recombinant GSTP1 lysates (Homo sapiens, UniProt P09211); test: GSTP1 biochemical substrate assay (GSH conjugation to BDNB); details: inhibitor 30 min at 37° C.; n=3; read-out: IC50, in vitro potency against GSTP1 by GSH substrate assay
T3 construct: FLAG (C); host or cells: HEK293T, transient transfection; soluble proteome used unpurified
Method: GSTP1 Biochemical Substrate Assay
Recombinant GSTP1-HEK293T soluble cell proteomes were diluted to 1 mg ml^−1 in assay buffer (100 mM NaH2PO4, pH 7.0). Samples were treated with inhibitor at indicated concentrations for 30 min at 37° C. GSH stock solution (250 mM in water) was diluted to 4 mM in assay buffer and 25 μl of diluted GSH solution was added to each sample. A substrate stock solution of 75 mM 1-bromo-2,4-dinitrobenzene […] in ethanol was diluted to 2 mM in assay buffer. Samples (25 μl) were aliquoted into a 96-well plate and spun briefly via centrifuge. Next, 50 μl of 2 mM BDNB was added to each well and the reaction was monitored in kinetic mode by measuring absorbance at 340 nm for 10 min on a BMG Labtech CLARIOstar plate reader (BMG Labtech, Cary, North Carolina, United States of America).

GSTP1 = target: T4, GSTP1 (Homo sapiens, UniProt P09211); test: Gel-based evaluation of proteomes from recombinant GSTP1-HEK293T cells treated with SuTEx fragments; format: cell-based; details: 50 μM compounds, 4 hr
T4 construct: FLAG (C); expressed in transfected cells; host or cells: HEK293T
Method: as §2
(§3) Cells grown to ˜90% confluency in 10 cm plates were treated with DMSO vehicle or SuTEx fragment (10 μl of 1,000× stock) in serum-free media for the indicated concentrations and times at 37° C. with 5% CO2. After treatment, cells were washed with cold PBS twice before collection and preparation for gel-based chemical proteomic evaluation as described above. For LC-MS studies, protein concentrations were normalized to 2.3 mg ml^−1 and 432 μl (for 1 mg final protein amount) were used for sample preparation as detailed below.

GSTP1 Y8 = target: T5, GSTP1 Y8 (Homo sapiens, UniProt P09211); test: Quantitative chemical proteomics of live SILAC DM93 cells treated with SuTEx fragments; format: cell-based; details: 50 μM compound, 1.5 hr, 37° C.
T5 construct: endogenous in cells; host or cells: DM93 melanoma cells (SILAC)
Method: Live Cell Evaluation of Sulfonyl-Triazole Fragments
as §3
Heavy and light proteomes (432 μl of each) were diluted to 2.3 mg ml^−1 in PBS and sample aliquots (432 μl) were treated with SuTEx fragment at the indicated concentrations (5 μl, 100× stock in DMSO), mixed gently and incubated for 30 min at 37° C. Samples were then treated with HHS-482 (5 μL, 5 mM stock in DMSO) for 30 min at 37° C. Probe-modified proteomes were conjugated to desthiobiotin-PEG3-azide followed by enrichment of probe-modified peptides for nano-electrospray ionization-LC-MS/MS analyses as previously described^57.
Next, SILAC DM93 cells were treated with JWB152 or JWB198 to determine whether these SuTEx fragments could ligand Y8 of endogenous GSTP1 in living systems (50 μM compound, 1.5 hr, 37° C.). Cells were pretreated with DMSO vehicle or SuTEx fragments followed by cells lysis, HHS-482 labeling of proteomes, and quantitative chemical proteomics.

[2] = target: T6, membrane proteins in human cell proteomes (Homo sapiens, UniProt Q02750); test: Chemical proteomic identification of membrane protein lysine sites modified by TH211; format: binding; details: MP2K1 human, Uniprot Q02750; amino acid modified K
T6 construct: endogenous in cells
Method: (§4) The light proteome aliquots (2.3 mg/mL, 432 μL) were treated with the probe (5 μL, 100× fresh stock in DMSO) and the heavy proteome aliquots were treated with either the same probe or DMSO (no probe) at 37° C. for 1 h. Then the samples were subjected to click reaction with the desthiobiotin-PEG3-azide (10 mM in DMSO, 10 μL, final concentration 200 μM) in the presence of TCEP (50 mM, 10 μL), TBTA (1.7 mM, 33 μL) and CuSO4 (50 mM, 10 μL) at room temperature for 1 h. The light and the heavy were mixed in the chloroform-methanol extraction step. The subsequent steps including reduction with dithiothreitol, alkylation with iodoacetamide, digestion with Trypsin/Lys-C, enrichment with avidin beads were conducted as previously described.^72,51
(§5) Data acquisition: The enriched peptide samples were analyzed by LC-MS/MS on an Easy-nLC 1200 (Thermo Scientific, Waltham, Massachusetts, United States of America) coupled with an Orbitrap Q Exactive Plus mass spectrometer (Thermo Scientific, Waltham, Massachusetts, United States of America). […] A top 10 data-dependent acquisition method was used, which consisted of one full scan […] scan (m/z 375-1,500) followed by ten MS2 scans of the most abundant ions recorded in the […] scan.
(§6) Data analysis: Identification of peptides and target proteins from the LC-MS/MS raw data was achieved using the Byonic software package (Protein Metrics Inc., Cupertino, California, United States of America) to search against a modified human protein database (UniProt human protein database, angiotensin I and vasoactive intestinal peptide standards; 40660 proteins) with parameters previously described.^72 Identification of probe-modified peptides was accomplished with variable (common) modification of +635.27374 Da for TH211, +608.26284 for TH214, +578.25228 for TH216 on tyrosine and lysine residues. Other added mass such as variable methionine oxidation (+15.9949 Da), fixed cysteine carbamidomethylation (+57.02146 Da) and the SILAC heavy amino acids (+10.0083 Da for R, +8.0142 Da for K) were included in search. The results from Byonic search were imported into Skyline-daily to determine SILAC ratio (SR) of light/heavy peptides.^51 To account for variations in mixing and sample preparation, SRs of peptide from probe/no-probe (the light was treated with the probe while the heavy was treated with DMSO) were normalized to those from probe/probe (both the light and the heavy were treated with the probe). Unless otherwise stated, the results from Skyline-daily output were filtered in R to keep peptides of high quality that meet the following criteria: Byonic score ≥300; a precursor mass error within 5 ppm; normalized SR≥5, with both isotop dot-product (iDOTP) and ratio dot-product (rDOTP)≥0.8. Comparison of probe-modified sites across all probes and cells were performed using the R package ggplot2 and Venn diagrams were generated with the VennDiagram R package.^72 Other bioinformatics analysis such as the domain enrichment analysis and the DrugBank analysis were performed as previously described.^72

[3] = test system: membrane proteins in human cell proteomes; test: as above; format: binding; details: amino acid modified K
Method: as §4, §5, §6

[4] = target: T7, membrane proteins in human cell proteomes (Homo sapiens, UniProt P51970); test: as above; format: binding; details: NDUA8 human, Uniprot P51970; amino acid modified K
T7 construct: endogenous in cells
Method: as §4, §5, §6

[5] = target: T8, membrane proteins in human cell proteomes (Homo sapiens, UniProt Q9P032); test: as above; format: binding; details: NDUF4 human, Uniprot Q9P032; amino acid modified K
T8 construct: endogenous in cells
Method: as §4, §5, §6

[6] = target: T9, membrane proteins in human cell proteomes (Homo sapiens, UniProt Q9BQB6); test: as above; format: binding; details: VKOR1 human, Uniprot Q9BQB6, amino acid modified K
T9 construct: endogenous in cells
Method: as §4, §5, §6

[7] = target: T10, recombinant human diacylglycerol kinase-alpha (DGKA) (Homo sapiens, UniProt P23743); test: Gel-based probe labeling of recombinant DGKA with TH SuTEx probes; format: binding; details: FIG. 39D, left panel
T10 construct: FLAG (N); made in house; host or cells: HEK293T, transient transfection; lysate used unpurified
Method: as §1
Proteome aliquots (2 mg/mL, 49 μL) were treated with probes at indicated concentration (1 μL, 50× stock in DMSO) at 37° C. for 1 h. The subsequent conjugation with fluorophore was accomplished by copper-catalyzed azide-alkyne cycloaddition (CuAAC) with rhodamine-azide (TAMRA-azide, 1.25 mM, 1 μL, final concentration of 25 μM) in the presence of tris(2-carboxyethyl)phosphine (TCEP, 50 mM fresh in water, 1 μL, final concentration of 1 mM), tris[(1-benzyl-1H-1,2,3-triazol-4-yl)methyl]amine (TBTA, 1.7 mM in 4:1 t-butanol/DMSO, 3 μL, final concentration of 100 μM) and CuSO4 (50 mM, 1 μL, final concentration of 1 mM). For samples of live cell treatment, it started with click reaction without the step of the probe treatment in vitro. After 1 h incubation at room temperature, reactions were quenched by adding 4×SDS-PAGE loading buffer and beta-mercaptoethanol (17 μL) and samples were resolved by SDS-PAGE followed by in-gel fluorescence scanning.

T9 sequence (Q9BQB6 whole entry): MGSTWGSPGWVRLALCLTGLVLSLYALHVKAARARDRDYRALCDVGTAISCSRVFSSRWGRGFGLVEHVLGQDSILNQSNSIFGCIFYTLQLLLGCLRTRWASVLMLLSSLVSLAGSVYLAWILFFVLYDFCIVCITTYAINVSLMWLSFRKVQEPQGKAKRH
T2 sequence (P09211 whole entry, the tested form may be a part): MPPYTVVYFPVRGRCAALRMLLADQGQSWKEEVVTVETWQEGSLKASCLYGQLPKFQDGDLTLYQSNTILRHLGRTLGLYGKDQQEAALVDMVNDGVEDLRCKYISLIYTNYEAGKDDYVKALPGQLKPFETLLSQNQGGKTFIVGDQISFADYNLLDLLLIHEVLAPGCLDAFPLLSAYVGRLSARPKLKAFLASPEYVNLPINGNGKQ
T4 sequence (P09211 whole entry, the tested form may be a part): as above
T3 sequence (P09211 whole entry): as the sequence (P09211 whole entry, the tested form may be a part) above
T5 sequence (P09211 whole entry, the tested form may be a part): as above
T8 sequence (Q9P032 whole entry): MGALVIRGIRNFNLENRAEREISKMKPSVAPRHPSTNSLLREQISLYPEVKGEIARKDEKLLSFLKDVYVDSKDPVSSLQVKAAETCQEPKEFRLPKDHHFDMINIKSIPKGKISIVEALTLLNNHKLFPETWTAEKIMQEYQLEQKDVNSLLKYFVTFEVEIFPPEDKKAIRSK
T6 sequence (Q02750 whole entry): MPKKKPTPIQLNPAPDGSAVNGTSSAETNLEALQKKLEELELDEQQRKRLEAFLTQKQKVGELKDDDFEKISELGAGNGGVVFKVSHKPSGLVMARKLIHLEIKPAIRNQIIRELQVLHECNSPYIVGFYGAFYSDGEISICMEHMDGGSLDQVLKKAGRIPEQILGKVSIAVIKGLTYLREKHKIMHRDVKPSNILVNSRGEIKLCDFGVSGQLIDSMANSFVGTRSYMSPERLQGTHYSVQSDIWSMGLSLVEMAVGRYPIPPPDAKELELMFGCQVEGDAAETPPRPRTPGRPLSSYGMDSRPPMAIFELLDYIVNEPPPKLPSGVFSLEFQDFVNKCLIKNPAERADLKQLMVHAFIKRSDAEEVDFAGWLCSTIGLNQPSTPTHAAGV
T7 sequence (P51970 whole entry): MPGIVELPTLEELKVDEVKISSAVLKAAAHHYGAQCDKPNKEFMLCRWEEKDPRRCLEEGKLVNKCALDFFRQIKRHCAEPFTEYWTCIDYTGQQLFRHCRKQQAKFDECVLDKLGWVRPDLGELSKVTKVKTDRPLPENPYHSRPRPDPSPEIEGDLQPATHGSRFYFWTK
T10 sequence (P23743 whole entry): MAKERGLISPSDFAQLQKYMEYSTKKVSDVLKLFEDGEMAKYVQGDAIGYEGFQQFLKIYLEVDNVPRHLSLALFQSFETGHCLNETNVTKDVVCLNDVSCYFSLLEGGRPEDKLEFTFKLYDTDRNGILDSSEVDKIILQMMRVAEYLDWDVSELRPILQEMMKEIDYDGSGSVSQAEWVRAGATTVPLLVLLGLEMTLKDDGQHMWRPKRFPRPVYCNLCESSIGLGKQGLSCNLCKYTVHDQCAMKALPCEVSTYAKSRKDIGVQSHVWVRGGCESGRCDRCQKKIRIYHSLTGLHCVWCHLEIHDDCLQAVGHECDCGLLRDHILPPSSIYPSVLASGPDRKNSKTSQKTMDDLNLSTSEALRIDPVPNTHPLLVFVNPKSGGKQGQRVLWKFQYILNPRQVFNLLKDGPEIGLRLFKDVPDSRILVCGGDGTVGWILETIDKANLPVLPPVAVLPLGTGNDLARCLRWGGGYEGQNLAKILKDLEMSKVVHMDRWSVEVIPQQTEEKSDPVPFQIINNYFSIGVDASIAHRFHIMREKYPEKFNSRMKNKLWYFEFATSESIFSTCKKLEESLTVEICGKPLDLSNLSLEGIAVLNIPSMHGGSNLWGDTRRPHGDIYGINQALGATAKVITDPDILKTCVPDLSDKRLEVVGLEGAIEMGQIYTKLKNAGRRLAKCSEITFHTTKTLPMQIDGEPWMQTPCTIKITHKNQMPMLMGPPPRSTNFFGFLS

## N#Cc1ccc(S(=O)(=O)n2cnc(-c3ccc(C(F)(F)F)cc3)n2)cc1 [JWB152, 4-((3-(4-(Trifluoromethyl)phenyl)-1H-1,2,4-triazol-1-yl)sulfonyl)benzonitrile]
Human DPP3 (hDPP3)
  competition against recombinant DPP3: potent competition
Human GSTP1 (hGSTP1)
  block of HHS-482 labeling of GSTP1: block HHS-482 labeling to levels comparable with Y8F mutant
[1]
  IC50: 23 µM
GSTP1
  HHS-482 labeling of GSTP1 after live cell treatment: reduced HHS-482 labeling
GSTP1 Y8
  blockade of HHS-482 labeling of native GSTP1 Y8 in live cells: ~20%

## C#CCNC(=O)c1ccc(S(=O)(=O)n2cc(CCN3CCC(=C(c4ccc(F)cc4)c4ccc(F)cc4)CC3)nn2)cc1 [TH211, 4-((4-(2-(4-(Bis(4-fluorophenyl)methylene)piperidin-1-yl)ethyl)-1H-1,2,3-triazol-1-yl)sulfonyl)-N-(prop-2-yn-1-yl)benzamide]
[2]
  Modified Amino Acid Number: 97
[3]; NDUA5 human, Uniprot Q16718
  Modified Amino Acid Number: 30
[3]; NDUB3 human, Uniprot O42676
  Modified Amino Acid Number: 39
[3]; NU5M human, Uniprot P03915
  Modified Amino Acid Number: 455
[3]; PYRD human, Uniprot Q02127
  Modified Amino Acid Number: 166
[4]
  Modified Amino Acid Number: 172
[5]
  Modified Amino Acid Number: 24
[6]; lysine residue 152
  Modified Amino Acid Number: 152
[6]; lysine residue 159
  Modified Amino Acid Number: 159
[7]
  fluorescent labeling of recombinant human DGKA: concentration dependent manner
